Experimental data reported in DBAASP.
Converted amounts (≈) assume the structure as drawn. Values belong to the compound of their own block, whether it stands above or below them.

Experiments:
Assay in all cases: ≥ marks a high value that may be exact or a test limit, other limits are often not marked, values filed in µg/mL are converted to µM
[1] = system: Pseudomonas aeruginosa ATCC 27853
Pseudomonas aeruginosa = system: Pseudomonas aeruginosa
Staphylococcus aureus 1 = system: Staphylococcus aureus 1
[2] = system: Staphylococcus aureus ATCC 43300
Escherichia coli B = system: Escherichia coli B
Staphylococcus aureus = system: Staphylococcus aureus
[3] = system: Candida albicans F7-39/IDE99
Bacillus subtilis 168 = system: Bacillus subtilis 168
[4] = system: Micrococcus luteus CCM 144
[5] = system: Staphylococcus epidermidis
[6] = system: Staphylococcus aureus ATCC 33591
[7] = system: Staphylococcus epidermidis ATCC 35984
[8] = system: Staphylococcus aureus ATCC 25923
Vibrio cholerae = system: Vibrio cholerae
[9] = system: Staphylococcus aureus MTCC 9542
Escherichia coli MG1655 = system: Escherichia coli MG1655
[10] = system: Bacillus subtilis MTCC 14416
[11] = system: Pectobacterium carotovorum
Bacillus subtilis = system: Bacillus subtilis
[12] = system: Enterococcus faecalis ATCC 29212
Escherichia coli C600 = system: Escherichia coli C600
[13] = system: Staphylococcus aureus 209P
[14] = system: Pseudomonas aeruginosa PAO1
[15] = system: Candida albicans ATCC 64550

Compound: CC[C@H](C)[C@H](NC(=O)CN)C(=O)N[C@@H](CC(C)C)C(=O)N[C@@H](CO)C(=O)N[C@@H](CO)C(=O)N[C@@H](Cc1c[nH]c2ccccc12)C(=O)N[C@@H](CC(C)C)C(=O)N[C@@H](CCCCN)C(=O)N[C@@H](CCCCN)C(=O)N[C@@H](CC(C)C)C(=O)N[C@@H](CCCCN)C(=O)N[C@@H](CCCCN)C(=O)N[C@H](C(=O)N[C@H](C(=O)N[C@@H](C)C(=O)N[C@@H](CCCCN)C(N)=O)[C@@H](C)CC)[C@@H](C)CC [GILSSWLKKLKKIIAK]
- MIC [1]: 4 µM (≈ 7.3 µg/mL)
- MIC (Pseudomonas aeruginosa): 5.9 µM (≈ 10.8 µg/mL)
- MIC (Staphylococcus aureus 1): 6.6 µM (≈ 12 µg/mL)
- MIC [2]: 16 µM (≈ 29.2 µg/mL)
- MIC (Escherichia coli B): 11 µM (≈ 20.1 µg/mL)
- MIC (Staphylococcus aureus): 16 µM (≈ 29.2 µg/mL)
- MIC [3]: 17 µM (≈ 31 µg/mL)
- MIC (Bacillus subtilis 168): 7 µM (≈ 12.8 µg/mL)
- MIC [4]: 3 µM (≈ 5.48 µg/mL)
- MIC [5]: 2 µM (≈ 3.65 µg/mL)

Compound: CC[C@H](C)[C@H](NC(=O)CN)C(=O)N[C@@H](CCSC)C(=O)N[C@@H](CO)C(=O)N[C@@H](CO)C(=O)N[C@@H](CC(C)C)C(=O)N[C@@H](CCSC)C(=O)N[C@@H](CCCCN)C(=O)N[C@@H](CCCCN)C(=O)N[C@@H](CC(C)C)C(=O)N[C@@H](C)C(=O)N[C@@H](C)C(=O)N[C@@H](Cc1cnc[nH]1)C(=O)N[C@H](C(=O)N[C@@H](CCCCN)C(=O)N[C@@H](CCCCN)C(N)=O)[C@@H](C)CC [GIMSSLMKKLAAHIKK]
- MIC [1]: 23 µM (≈ 40.4 µg/mL)
- MIC (Pseudomonas aeruginosa): 46 µM (≈ 80.7 µg/mL)
- MIC (Staphylococcus aureus 1): ≥ 77 µM
- MIC [2]: 85 µM (≈ 149 µg/mL)
- MIC (Escherichia coli B): 20 µM (≈ 35.1 µg/mL)
- MIC (Staphylococcus aureus): 90 µM (≈ 158 µg/mL)
- MIC [3]: 5 µM (≈ 8.78 µg/mL)
- MIC (Bacillus subtilis 168): 7 µM (≈ 12.3 µg/mL)
- MIC [4]: 3 µM (≈ 5.27 µg/mL)
- MIC [5]: 11 µM (≈ 19.3 µg/mL)

Compound: CC(C)C[C@H](NC(=O)[C@H](Cc1ccccc1)NC(=O)[C@H](CCCCN)NC(=O)CN)C(=O)N[C@@H](CCCCN)C(=O)N[C@@H](CCCCN)C(=O)N[C@@H](C)C(=O)N[C@@H](CCCCN)C(=O)N[C@@H](CCCCN)C(=O)N[C@@H](Cc1ccccc1)C(=O)NCC(=O)N[C@@H](CCCCN)C(N)=O [GKFLKKAKKFGK]
- MIC [1]: > 371 µM
- MIC [6]: ≥ 371 µM
- MIC [7]: ≥ 262 µM
- MIC [8]: > 371 µM

Compound: CC[C@H](C)[C@@H]1NC(=O)[C@H](CCCCN)NC(=O)[C@@H](NC(=O)[C@H](CC(C)C)NC(=O)[C@@H](NC(=O)[C@H](CCC(N)=O)NC(=O)[C@@H]2CCCN2C(=O)[C@H](CC(C)C)NC(=O)[C@H](Cc2ccccc2)NC(=O)[C@H](CC(N)=O)NC(=O)[C@H](C)NC(=O)[C@H](C)NC(=O)[C@H](CC(C)C)NC(=O)CN)[C@@H](C)CC)CSSC[C@@H](C(N)=O)NC(=O)[C@H](CCCCN)NC(=O)[C@H](CCCN=C(N)N)NC(=O)[C@H](C)NC1=O [GLAANFLPQILCKIARKC]
- MIC [1]: > 51 µM
- MIC (Vibrio cholerae): 25.5 µM (≈ 49.9 µg/mL)
- MIC [9]: 25.5 µM (≈ 49.9 µg/mL)
- MIC (Escherichia coli MG1655): ≥ 51 µM
- MIC [10]: ≥ 51 µM

The next lines start with results.

- MIC [11]: 0.632 µM (≈ 2.01 µg/mL)
- MIC (Bacillus subtilis): 2.45 µM (≈ 7.77 µg/mL)
Compound: CC[C@H](C)[C@H](NC(=O)[C@H](CO)NC(=O)[C@H](CCCN=C(N)N)NC(=O)CNC(=O)[C@H](CCC(=O)O)NC(=O)[C@H](CC(C)C)NC(=O)[C@H](CCC(=O)O)NC(=O)[C@H](CC(C)C)NC(=O)[C@H](CO)NC(=O)[C@H](CC(=O)O)NC(=O)[C@H](Cc1ccc(O)cc1)NC(=O)[C@H](CCCN=C(N)N)NC(=O)[C@H](Cc1ccc(O)cc1)NC(=O)CNC(=O)[C@H](Cc1ccccc1)NC(=O)[C@@H](N)CCCCN)C(=O)N[C@@H](CO)C(=O)N[C@@H](CCCN=C(N)N)C(=O)N[C@H](C(=O)N[C@@H](CC(=O)O)C(=O)N[C@@H](CCC(=O)O)C(=O)N[C@@H](CC(C)C)C(=O)N[C@H](C(=O)N[C@@H](CCC(N)=O)C(=O)N[C@@H](CCC(N)=O)C(=O)N[C@@H](CCCN=C(N)N)C(=O)O)[C@@H](C)CC)[C@@H](C)CC [KFGYRYDSLELEGRSISRIDELIQQR]

- MIC [1]: 367 µM (≈ 512 µg/mL)
- MIC [6]: ≥ 367 µM
- MIC [7]: ≥ 367 µM
- MIC [8]: > 367 µM
Compound: CC(C)C[C@H](NC(=O)[C@H](Cc1ccccc1)NC(=O)[C@@H](N)CCCCN)C(=O)N[C@@H](CCCCN)C(=O)N[C@@H](CCCCN)C(=O)N[C@@H](C)C(=O)N[C@@H](CCCCN)C(=O)N[C@@H](CCCCN)C(=O)N[C@@H](Cc1ccccc1)C(=O)NCC(=O)N[C@@H](CCCCN)C(=O)N[C@@H](C)C(N)=O [KFLKKAKKFGKA]

- MIC [1]: > 44.3 µM
- MIC [2]: > 44.3 µM
- MIC [9]: ≥ 44.3 µM
- MIC [12]: 44.3 µM (≈ 100 µg/mL)
- MIC (Escherichia coli MG1655): 11.1 µM (≈ 25 µg/mL)
- MIC [10]: 22.2 µM (≈ 50 µg/mL)
Compound: CC[C@H](C)[C@H](NC(=O)[C@H](CCCCN)NC(=O)[C@H](CS)NC(=O)[C@H](CC(C)C)NC(=O)[C@@H](NC(=O)[C@H](CCC(N)=O)NC(=O)[C@@H]1CCCN1C(=O)[C@H](CC(C)C)NC(=O)[C@H](Cc1ccccc1)NC(=O)[C@H](CC(N)=O)NC(=O)[C@H](C)NC(=O)[C@H](C)NC(=O)[C@H](CC(C)C)NC(=O)CNC(=O)[C@H](C)NC(=O)[C@@H](NC(=O)[C@@H](N)CC(C)C)[C@@H](C)CC)[C@@H](C)CC)C(=O)N[C@@H](C)C(=O)N[C@@H](CCCN=C(N)N)C(=O)N[C@@H](CCCCN)C(=O)N[C@@H](CS)C(N)=O [LIAGLAANFLPQILCKIARKC]
- MIC (Vibrio cholerae): 11.1 µM (≈ 25 µg/mL)

- MIC (Escherichia coli C600): 1.56 µM (≈ 3.55 µg/mL)
- MIC [13]: 1.56 µM (≈ 3.55 µg/mL)
- MIC [14]: 12.5 µM (≈ 28.5 µg/mL)
Compound: CC(C)[C@@H]1NC(=O)CNC(=O)[C@H](CCCN=C(N)N)NC(=O)[C@H](C(C)C)NC(=O)[C@H](CCCN=C(N)N)NC(=O)[C@H](C)NC(=O)[C@H](CCCN=C(N)N)NC(=O)[C@H](C(C)C)NC(=O)[C@@H](NC(=O)[C@H](Cc2c[nH]c3ccccc23)NC(=O)[C@@H](N)CCCN=C(N)N)CSSC[C@@H](C(=O)N[C@@H](Cc2c[nH]c3ccccc23)C(=O)O)NC(=O)[C@H](CCCN=C(N)N)NC(=O)[C@H](CCCN=C(N)N)NC(=O)[C@H](Cc2ccc(O)cc2)NC(=O)[C@H](CCCN=C(N)N)NC1=O [RWCVRARVRGVRYRRCW]

- MIC [14]: 1.79 µM (≈ 2.5 µg/mL)
- MIC [15]: ≥ 100 µM
Compound: CC(C)[C@H](NC(=O)[C@H](CCCN=C(N)N)NC(=O)[C@@H](NC(=O)[C@H](CCCN=C(N)N)NC(=O)[C@H](Cc1c[nH]c2ccccc12)NC(=O)[C@H](CCCN=C(N)N)NC(=O)[C@@H](N)Cc1c[nH]c2ccccc12)C(C)C)C(=O)N[C@@H](Cc1c[nH]c2ccccc12)C(=O)N[C@@H](CCCN=C(N)N)C(N)=O [WRWRVRVWR]
